In patent US12559506B2, “Indazole based compounds and associated methods of use” (Arvinas Operations, Inc., priority 2021, dated 2026):
Read-outs that look alike come from different tables or passages of the source.

Target: T1, LRRK2 (endogenous, HiBit tagged) (Homo sapiens, UniProt Q5S007)
T1 construct: endogenous in cells; host or cells: HEK293 cells with HiBit knock-in at the endogenous LRRK2 locus, stably expressing firefly luciferase
Experiment: Endogenous LRRK2 degradation assay, endogenous gene C-terminally HiBit-tagged in HEK293 cells (Nano-Glo Dual Luciferase)
Assay type: cell-based
Outline: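 LRRK2-HiBit quantified via Nano-Glo Dual Luciferase in HEK293 knock-in cells co-expressing firefly luciferase, after 24 h exposure to compound (1 μM final top, 1:3, 11 points). Values normalised to DMSO median per plate and curve-fitted; Alamar Blue viability run alongside.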

[1] = endogenous HiBit-tagged LRRK2, HEK293 cells, 24 hours, read-out: **Endogenous WT Dmax (%)
[2] = endogenous HiBit-tagged LRRK2, HEK293 cells, 24 hours, read-out: *Endogenous WT DC50
[3] = endogenous HiBit-tagged LRRK2 in HEK293 cells, 24 hours treatment, read-out: **Endogenous WT Dmax (%)
[4] = endogenous HiBit-tagged LRRK2 in HEK293 cells, 24 hours treatment, read-out: *Endogenous WT DC50
[5] = endogenous HiBit-tagged LRRK2 in HEK293 cells, 24 hours treatment, read-out: Endogenous WT DC50
[6] = endogenous HiBit-tagged LRRK2 in HEK293 cells, 24 hours treatment, read-out: Endogenous WT Dmax

T1 sequence (Q5S007 whole entry): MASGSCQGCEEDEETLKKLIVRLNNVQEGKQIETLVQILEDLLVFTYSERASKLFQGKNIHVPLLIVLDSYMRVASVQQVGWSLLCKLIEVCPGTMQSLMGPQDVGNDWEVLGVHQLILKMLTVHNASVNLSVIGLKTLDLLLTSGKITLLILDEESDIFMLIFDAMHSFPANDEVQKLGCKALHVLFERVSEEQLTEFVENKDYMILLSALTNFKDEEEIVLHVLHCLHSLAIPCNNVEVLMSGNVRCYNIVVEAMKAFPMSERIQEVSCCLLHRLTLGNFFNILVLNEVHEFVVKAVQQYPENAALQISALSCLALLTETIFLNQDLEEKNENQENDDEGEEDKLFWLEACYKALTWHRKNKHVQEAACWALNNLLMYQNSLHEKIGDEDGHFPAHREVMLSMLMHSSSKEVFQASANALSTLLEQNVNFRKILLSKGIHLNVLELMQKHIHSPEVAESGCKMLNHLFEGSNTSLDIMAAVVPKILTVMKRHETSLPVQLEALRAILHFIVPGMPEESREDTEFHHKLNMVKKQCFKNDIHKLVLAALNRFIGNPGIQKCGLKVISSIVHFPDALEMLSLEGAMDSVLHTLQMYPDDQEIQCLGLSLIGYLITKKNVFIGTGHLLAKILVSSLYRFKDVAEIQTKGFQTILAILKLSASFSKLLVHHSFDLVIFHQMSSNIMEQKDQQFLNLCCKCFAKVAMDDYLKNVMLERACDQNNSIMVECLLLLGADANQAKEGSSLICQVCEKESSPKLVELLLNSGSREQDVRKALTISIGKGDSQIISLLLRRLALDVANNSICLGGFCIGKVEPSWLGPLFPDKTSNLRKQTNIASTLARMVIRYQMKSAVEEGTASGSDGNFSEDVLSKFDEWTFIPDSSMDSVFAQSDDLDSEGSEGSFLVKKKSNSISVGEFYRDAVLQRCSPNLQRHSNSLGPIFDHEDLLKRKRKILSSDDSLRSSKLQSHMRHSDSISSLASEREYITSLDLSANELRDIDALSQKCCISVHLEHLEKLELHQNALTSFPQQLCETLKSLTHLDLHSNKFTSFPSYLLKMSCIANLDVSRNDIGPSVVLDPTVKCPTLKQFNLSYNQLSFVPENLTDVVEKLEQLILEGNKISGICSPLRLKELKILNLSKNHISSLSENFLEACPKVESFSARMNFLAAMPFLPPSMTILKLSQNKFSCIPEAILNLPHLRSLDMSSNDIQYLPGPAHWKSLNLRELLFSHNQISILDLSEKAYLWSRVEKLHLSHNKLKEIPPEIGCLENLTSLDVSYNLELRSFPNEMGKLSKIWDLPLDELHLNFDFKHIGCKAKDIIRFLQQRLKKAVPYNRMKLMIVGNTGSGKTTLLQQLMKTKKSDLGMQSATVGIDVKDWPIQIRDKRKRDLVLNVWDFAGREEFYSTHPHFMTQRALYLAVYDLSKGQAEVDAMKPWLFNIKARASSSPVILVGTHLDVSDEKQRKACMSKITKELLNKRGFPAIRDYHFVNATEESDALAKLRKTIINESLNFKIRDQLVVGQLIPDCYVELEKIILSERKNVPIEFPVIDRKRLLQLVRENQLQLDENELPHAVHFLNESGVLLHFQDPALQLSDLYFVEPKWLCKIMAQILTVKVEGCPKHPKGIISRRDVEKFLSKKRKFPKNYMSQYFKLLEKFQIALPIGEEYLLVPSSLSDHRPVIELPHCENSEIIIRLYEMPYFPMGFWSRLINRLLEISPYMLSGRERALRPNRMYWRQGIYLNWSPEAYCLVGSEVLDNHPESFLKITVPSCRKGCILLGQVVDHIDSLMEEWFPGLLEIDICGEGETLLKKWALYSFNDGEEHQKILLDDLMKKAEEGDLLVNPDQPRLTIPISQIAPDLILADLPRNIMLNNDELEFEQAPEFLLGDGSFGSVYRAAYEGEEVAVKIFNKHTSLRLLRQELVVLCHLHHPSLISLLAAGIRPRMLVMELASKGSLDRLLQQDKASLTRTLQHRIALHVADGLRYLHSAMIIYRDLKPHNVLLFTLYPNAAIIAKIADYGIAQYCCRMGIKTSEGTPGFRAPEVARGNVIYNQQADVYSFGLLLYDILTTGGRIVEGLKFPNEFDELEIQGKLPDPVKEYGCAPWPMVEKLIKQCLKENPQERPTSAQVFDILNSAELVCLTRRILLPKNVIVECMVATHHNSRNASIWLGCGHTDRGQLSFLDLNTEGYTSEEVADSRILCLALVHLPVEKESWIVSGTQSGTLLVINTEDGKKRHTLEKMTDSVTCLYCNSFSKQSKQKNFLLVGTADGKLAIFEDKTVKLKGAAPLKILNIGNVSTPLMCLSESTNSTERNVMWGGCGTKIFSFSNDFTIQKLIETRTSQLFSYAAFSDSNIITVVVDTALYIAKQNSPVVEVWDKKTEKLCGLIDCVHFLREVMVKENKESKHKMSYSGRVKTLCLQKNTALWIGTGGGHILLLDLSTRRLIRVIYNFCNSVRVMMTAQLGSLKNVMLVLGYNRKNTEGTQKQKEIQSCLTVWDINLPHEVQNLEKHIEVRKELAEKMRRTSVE

Row | SMILES | DC50 [5] | Dmax [6] | also measured
1 | CC1(Oc2ccc3[nH]nc(-c4cc(N5CCC(CN6CCC(F)(CN7CCN(c8cc9c(cc8F)C(=O)N(C8CCC(=O)NC8=O)C9)CC7)CC6)CC5)ncn4)c3c2)CC1 (centres unmarked) [Compound 188, 3-[6-fluoro-5-[4-[[4-fluoro-1-[[1-[6-[5-(1-methylcyclopropoxy)-1H-indazol-3-yl]pyrimidin-4-yl]-4-piperidyl]methyl]-4-piperidyl]methyl]piperazin-1-yl]-1-oxo-isoindolin-2-yl]piperidine-2,6-dione] |  |  | Dmax [1]: ≥ 70%; DC50 [2]: < 10 nM
2 | COc1c(N2CCC(CN3CCC(OC4CN(c5cc(-c6[nH]nc7ccc(OC8(C)CC8)cc67)ncn5)C4)CC3)CC2)ccc2c1CN(C1CCC(=O)NC1=O)C2=O (centres unmarked) [Compound 298, 3-{4-methoxy-5-[4-({4-[(1-{6-[5-(1-methylcyclopropoxy)-2H-indazol-3-yl]pyrimidin-4-yl}azetidin-3-yl)oxy]piperidin-1-yl}methyl)piperidin-1-yl]-1-oxo-2,3-dihydro-1H-isoindol-2-yl}piperidine-2,6-dione] |  |  | Dmax [3]: 50 to 70%; DC50 [4]: < 10 nM
3 | CC1(Oc2ccc3[nH]nc(-c4cc(N5CCC(OC6CCC7(CC6)CN(c6ccc8c(c6F)CN(C6CCC(=O)NC6=O)C8=O)C7)CC5)ncn4)c3c2)CC1 (centres unmarked) [Compound 374, 3-(4-fluoro-5-{7-[(1-{6-[5-(1-methylcyclopropoxy)-1H-indazol-3-yl]pyrimidin-4-yl}piperidin-4-yl)oxy]-2-azaspiro[3.5]nonan-2-yl}-1-oxo-2,3-dihydro-1H-isoindol-2-yl)piperidine-2,6-dione] | < 10 nM | 50 to 70% | 
4 | CC1(Oc2ccc3n[nH]c(-c4cc(N5CCC(O[C@H]6CC[C@H](OC7CCN(c8cc9c(cc8F)C(=O)N(C8CCC(=O)NC8=O)C9)CC7)CC6)CC5)ncn4)c3c2)CC1 (some centres unmarked) [Compound 244, 3-[6-fluoro-1-oxo-5-(4-{[(1r,4r)-4-[(1-{6-[5-(1-methylcyclopropoxy)-2H-indazol-3-yl]pyrimidin-4-yl}piperidin-4-yl)oxy]cyclohexyl]oxy}piperidin-1-yl)-2,3-dihydro-1H-isoindol-2-yl]piperidine-2,6-dione] | < 10 nM | 50 to 70% | 
5 | CC1(Oc2ccc3[nH]nc(-c4cc(N5CCC(CN6CCN(C(C)(C)C7CCN(c8ccc9c(c8F)CN(C8CCC(=O)NC8=O)C9=O)CC7)CC6)CC5)ncn4)c3c2)CC1 (centres unmarked) [Compound 309, 3-{4-fluoro-5-[4-(2-{4-[(1-{6-[5-(1-methylcyclopropoxy)-1H-indazol-3-yl]pyrimidin-4-yl}piperidin-4-yl)methyl]piperazin-1-yl}propan-2-yl)piperidin-1-yl]-1-oxo-2,3-dihydro-1H-isoindol-2-yl}piperidine-2,6-dione] |  |  | Dmax [3]: ≥ 70%; DC50 [4]: < 10 nM
6 | CC1(Oc2cc3c(-c4cc(N5CCN(CC6(F)CCN(CC7CCN(c8cc9c(cc8F)C(=O)N(C8CCC(=O)NC8=O)C9)CC7)CC6)CC5)ncn4)[nH]nc3cc2F)CC1 (centres unmarked) [Compound 195, 3-[6-fluoro-5-[4-[[4-fluoro-4-[[4-[6-[6-fluoro-5-(1-methylcyclopropoxy)-2H-indazol-3-yl]pyrimidin-4-yl]piperazin-1-yl]methyl]-1-piperidyl]methyl]-1-piperidyl]-1-oxo-isoindolin-2-yl]piperidine-2,6-dione] |  |  | Dmax [1]: ≥ 70%; DC50 [2]: < 10 nM
7 | CC1(Oc2ccc3n[nH]c(-c4cc(N5CCC(O[C@H]6CC[C@H](OC7CCN(c8ccc9c(c8F)CN(C8CCC(=O)NC8=O)C9=O)CC7)C6)CC5)ncn4)c3c2)CC1 (mixture of isomers) [Compound 240, 3-[4-fluoro-5-[4-[(1S,3S)-3-[[1-[6-[5-(1-methylcyclopropoxy)-2H-indazol-3-yl]pyrimidin-4-yl]-4-piperidyl]oxy]cyclopentoxy]-1-piperidyl]-1-oxo-isoindolin-2-yl]piperidine-2,6-dione and 3-[4-fluoro-5-[4-[(1R,3R)-3-[[1-[6-[5-(1-methylcyclopropoxy)-2H-indazol-3-yl]pyrimidin-4-yl]-4-piperidyl]oxy]cyclopentoxy]-1-piperidyl]-1-oxo-isoindolin-2-yl]piperidine-2,6-dione] | < 10 nM | 50 to 70% | 
8 | CC1(Oc2ccc3n[nH]c(-c4cc(N5CCC(CO[C@H]6CC[C@H](CN7CCN(c8ccc9c(c8)C(=O)N(C8CCC(=O)NC8=O)C9=O)CC7)CC6)CC5)ncn4)c3c2)CC1 (some centres unmarked) [Compound 60, 2-(2,6-dioxo-3-piperidyl)-5-[4-[[4-[[1-[6-[5-(1-methylcyclopropoxy)-2H-indazol-3-yl]pyrimidin-4-yl]-4-piperidyl]methoxy]cyclohexyl]methyl]piperazin-1-yl]isoindoline-1,3-dione] |  |  | Dmax (endogenous HiBit-tagged LRRK2 in HEK293 cells, 24 hours, read-out: **Endogenous WT Dmax (%)): ≥ 70%; DC50 (endogenous HiBit-tagged LRRK2 in HEK293 cells, 24 hours, read-out: *Endogenous WT DC50): < 10 nM
9 | COc1c(N2CCC(CN3CC[C@H](OC4CCN(c5cc(-c6n[nH]c7ccc(OC8(C)CC8)cc67)ncn5)CC4)CC3(C)C)CC2)ccc2c1CN(C1CCC(=O)NC1=O)C2=O (stereo partly drawn) [Compound 325, 3-(5-(4-(((S)-2,2-dimethyl-4-((1-(6-(5-(1-methylcyclopropoxy)-1H-indazol-3-yl)pyrimidin-4-yl)piperidin-4-yl)oxy)piperidin-1-yl)methyl)piperidin-1-yl)-4-methoxy-1-oxoisoindolin-2-yl)piperidine-2,6-dione] |  |  | Dmax [3]: 50 to 70%; DC50 [4]: < 10 nM
10 | CC1(Oc2ccc3n[nH]c(-c4cc(N5CCC(O[C@H]6CC[C@H](OC7CCN(c8ccc9c(c8F)CN(C8CCC(=O)NC8=O)C9=O)CC7)CC6)CC5)ncn4)c3c2)CC1 (some centres unmarked) [Compound 228, 3-[4-fluoro-5-[4-[4-[[1-[6-[5-(1-methylcyclopropoxy)-2H-indazol-3-yl]pyrimidin-4-yl]-4-piperidyl]oxy]cyclohexoxy]-1-piperidyl]-1-oxo-isoindolin-2-yl]piperidine-2,6-dione] | 10 to 50 nM | 50 to 70% | 
11 | C[C@H]1CN(c2cc(-c3n[nH]c4ccc(OC5(C)CC5)cc34)ncn2)CCN1CC1(F)CCN(CC2CCN(c3ccc4c(c3F)CN(C3CCC(=O)NC3=O)C4=O)CC2)CC1 (stereo partly drawn) [Compound 187, 3-[4-fluoro-5-[4-[[4-fluoro-4-[[(2S)-2-methyl-4-[6-[5-(1-methylcyclopropoxy)-1H-indazol-3-yl]pyrimidin-4-yl]piperazin-1-yl]methyl]-1-piperidyl]methyl]-1-piperidyl]-1-oxo-isoindolin-2-yl]piperidine-2,6-dione] |  |  | Dmax [1]: ≥ 70%; DC50 [2]: < 10 nM
12 | CC1(Oc2ccc3n[nH]c(-c4cc(N5CCN(CC6(F)CCN(CC7CCN(c8cc9c(cc8F)C(=O)N(C8CCC(=O)NC8=O)C9)CC7)CC6)CC5)ncn4)c3c2)CC1 (centres unmarked) [Compound 183, 3-[6-fluoro-5-[4-[[4-fluoro-4-[[4-[6-[5-(1-methylcyclopropoxy)-2H-indazol-3-yl]pyrimidin-4-yl]piperazin-1-yl]methyl]-1-piperidyl]methyl]-1-piperidyl]-1-oxo-isoindolin-2-yl]piperidine-2,6-dione] |  |  | Dmax [1]: ≥ 70%; DC50 [2]: < 10 nM

Continued, in another order:

Row | DC50 [5] | Dmax [6] | SMILES | also measured
13 | < 10 nM | 50 to 70% | CC1(Oc2cc3c(-c4cc(N5CCC(O[C@H]6CC[C@H](CN7CCN(c8ccc9c(c8F)CN(C8CCC(=O)NC8=O)C9=O)CC7)CC6)CC5)ncn4)n[nH]c3cn2)CC1 (some centres unmarked) [Compound 254, 3-[4-fluoro-1-oxo-5-(4-{[(1r,4r)-4-[(1-{6-[5-(1-methylcyclopropoxy)-1H-pyrazolo[3,4-c]pyridin-3-yl]pyrimidin-4-yl}piperidin-4-yl)oxy]cyclohexyl]methyl}piperazin-1-yl)-2,3-dihydro-1H-isoindol-2-yl]piperidine-2,6-dione] | 
14 | < 10 nM | 50 to 70% | CC1(Oc2ccc3[nH]nc(-c4cc(N5CCC(CN6CCN(CC7CCN(c8ccc9c(c8F)CN(C8CCC(=O)NC8=O)C9=O)CC7)C(C)(C)C6)CC5)ncn4)c3c2)CC1 (centres unmarked) [Compound 236, 3-[5-[4-[[2,2-dimethyl-4-[[1-[6-[5-(1-methylcyclopropoxy)-1H-indazol-3-yl]pyrimidin-4-yl]-4-piperidyl]methyl]piperazin-1-yl]methyl]-1-piperidyl]-4-fluoro-1-oxo-isoindolin-2-yl]piperidine-2,6-dione] | 
15 | 10 to 50 nM | 50 to 70% | CC1(Oc2ccc3n[nH]c(-c4cc(N5CCC(CN6CCN(CC7CCN(c8c(F)ccc9c8CN(C8CCC(=O)NC8=O)C9=O)CC7)CC6)CC5)ncn4)c3c2)CC1 (centres unmarked) [Compound 217, 3-[5-fluoro-4-[4-[[4-[[1-[6-[5-(1-methylcyclopropoxy)-2H-indazol-3-yl]pyrimidin-4-yl]-4-piperidyl]methyl]piperazin-1-yl]methyl]-1-piperidyl]-1-oxo-isoindolin-2-yl]piperidine-2,6-dione] | 
16 | < 10 nM | 50 to 70% | COc1c(N2CCC(CN3CCN(CC4CCN(c5cc(-c6n[nH]c7cnc(OC8(C)CC8)cc67)ncn5)CC4)C(C)(C)C3)CC2)ccc2c1CN(C1CCC(=O)NC1=O)C2=O (centres unmarked) [Compound 250, 3-{5-[4-({3,3-dimethyl-4-[(1-{6-[5-(1-methylcyclopropoxy)-1H-pyrazolo[3,4-c]pyridin-3-yl]pyrimidin-4-yl}piperidin-4-yl)methyl]piperazin-1-yl}methyl)piperidin-1-yl]-4-methoxy-1-oxo-2,3-dihydro-1H-isoindol-2-yl}piperidine-2,6-dione] | 
